# pEC50, pIC50, pKi: −log10 of the molar value. Square brackets hold non-standard residues; d marks the D form. Peptide text beside a SMILES is read from it. * marks the point of attachment. Pro(cis-4-OPh) = O=C(O)[C@@H]1C[C@H](Oc2ccccc2)CN1; Bip = N[C@@H](Cc1ccc(-c2ccccc2)cc1)C(=O)O; X1 = CCCCCCCCCCCCCCCCCCS(=O)(=O)CCN*; Tle = CC(C)(C)[C@H](N)C(=O)O; X2 = CCCCCCCCCCCCCCCCCCSCCN*; NMeA = CN[C@@H](C)C(=O)O
# Experiments:
# MDA-MB-468 = assay: Cytotoxicity against human MDA-MB-468 cells assessed as cell growth inhibition; type: functional, cell-based
# MDA-MB-231 = assay: Cytotoxicity against human MDA-MB-231 cells assessed as cell growth inhibition; type: functional, cell-based
# A549 = assay: Cytotoxicity against human A549 cells assessed as cell growth inhibition; type: functional, cell-based
# SW480 = assay: Cytotoxicity against human SW480 cells assessed as cell growth inhibition; type: functional, cell-based
# HCT-116 = assay: Cytotoxicity against human HCT-116 cells assessed as cell growth inhibition; type: functional, cell-based
# BT-20 = assay: Cytotoxicity against human BT-20 cells assessed as cell growth inhibition; type: functional, cell-based
# Hepatitis C virus [1] = assay: Antiviral activity against HCV; type: functional, organism-based, Hepacivirus hominis
# FaDu = assay: Antitumor activity against human FaDu cells assessed as cell growth inhibition; type: functional, cell-based
# Hep 3B2 = assay: Antitumor activity against human Hep3B cells assessed as cell growth inhibition; type: functional, cell-based
# HCC1954 = assay: Antitumor activity against human HCC1954 cells assessed as cell growth inhibition; type: functional, cell-based
# BT-474 = assay: Antitumor activity against human BT-474 cells assessed as cell growth inhibition; type: functional, cell-based
# NALM-6 = assay: Antitumor activity against human NALM-6 cells assessed as cell growth inhibition; type: functional, cell-based
# Hepatitis C virus [2] = assay: Antiviral activity against HCV genotype 1b/6a NS5A infected in human Huh-7 cells by phenotypic assay; type: functional, organism-based, Hepacivirus hominis
# Hepatitis C virus [3] = assay: Antiviral activity against HCV genotype 1b/3a NS5A infected in human Huh-7 cells by phenotypic assay; type: functional, organism-based, Hepacivirus hominis
# N2a = assay: Antiproliferative activity against mouse N2a cells by MTT assay; type: functional, cell-based
# HeLa = assay: Antiproliferative activity against human HeLA cells by MTT assay; type: functional, cell-based
# [4] = Binding affinity to beta-catenin/APC (unknown origin) assessed as inhibition constant; parameters: species or system Homo sapiens
# [5] = target: Catenin beta-1/Cadherin-1 (Homo sapiens, UniProt P12830+P35222); assay: Binding affinity to beta-catenin/E-cadherin (unknown origin) assessed as inhibition constant; type: protein assay
# [6] = Inhibition of FITC-labeled NS4A binding to HCV NS3 (4 to 182 residues) expressed in Escherichia coli […] (DE3) incubated for 60 mins by fluorescence anisotropy based competition assay; parameters: species or system Hepacivirus hominis
# [7] = Antitumor activity against human UM-SCC-5 cells assessed as cell growth inhibition; type: functional, cell-based
# [8] = Antitumor activity against human UM-SCC-38 cells assessed as cell growth inhibition; type: functional, cell-based
# Sequence of Catenin beta-1/Cadherin-1 (P35222 whole entry, the tested form may be a part): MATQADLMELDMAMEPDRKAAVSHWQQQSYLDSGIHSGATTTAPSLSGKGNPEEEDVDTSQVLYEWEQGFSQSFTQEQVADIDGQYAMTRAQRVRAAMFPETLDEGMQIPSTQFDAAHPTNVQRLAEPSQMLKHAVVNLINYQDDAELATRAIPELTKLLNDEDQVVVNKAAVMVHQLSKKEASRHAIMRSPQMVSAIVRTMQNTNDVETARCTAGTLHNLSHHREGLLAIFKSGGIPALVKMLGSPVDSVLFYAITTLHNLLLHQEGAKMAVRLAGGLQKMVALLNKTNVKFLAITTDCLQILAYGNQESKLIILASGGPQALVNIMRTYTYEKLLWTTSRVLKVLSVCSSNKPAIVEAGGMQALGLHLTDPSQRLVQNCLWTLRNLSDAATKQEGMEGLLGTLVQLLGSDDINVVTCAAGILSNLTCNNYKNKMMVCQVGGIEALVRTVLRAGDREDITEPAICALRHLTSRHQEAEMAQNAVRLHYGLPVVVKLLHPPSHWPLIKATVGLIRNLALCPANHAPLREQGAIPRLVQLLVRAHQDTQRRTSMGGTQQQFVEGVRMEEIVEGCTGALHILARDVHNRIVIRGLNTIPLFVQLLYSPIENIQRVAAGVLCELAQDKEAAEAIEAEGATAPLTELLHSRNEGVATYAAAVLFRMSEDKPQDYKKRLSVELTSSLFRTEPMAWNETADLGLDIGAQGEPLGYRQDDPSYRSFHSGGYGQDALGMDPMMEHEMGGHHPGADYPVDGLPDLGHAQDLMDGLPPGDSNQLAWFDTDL
# Sequence of Catenin beta-1/Cadherin-1 (P12830 whole entry, the tested form may be a part): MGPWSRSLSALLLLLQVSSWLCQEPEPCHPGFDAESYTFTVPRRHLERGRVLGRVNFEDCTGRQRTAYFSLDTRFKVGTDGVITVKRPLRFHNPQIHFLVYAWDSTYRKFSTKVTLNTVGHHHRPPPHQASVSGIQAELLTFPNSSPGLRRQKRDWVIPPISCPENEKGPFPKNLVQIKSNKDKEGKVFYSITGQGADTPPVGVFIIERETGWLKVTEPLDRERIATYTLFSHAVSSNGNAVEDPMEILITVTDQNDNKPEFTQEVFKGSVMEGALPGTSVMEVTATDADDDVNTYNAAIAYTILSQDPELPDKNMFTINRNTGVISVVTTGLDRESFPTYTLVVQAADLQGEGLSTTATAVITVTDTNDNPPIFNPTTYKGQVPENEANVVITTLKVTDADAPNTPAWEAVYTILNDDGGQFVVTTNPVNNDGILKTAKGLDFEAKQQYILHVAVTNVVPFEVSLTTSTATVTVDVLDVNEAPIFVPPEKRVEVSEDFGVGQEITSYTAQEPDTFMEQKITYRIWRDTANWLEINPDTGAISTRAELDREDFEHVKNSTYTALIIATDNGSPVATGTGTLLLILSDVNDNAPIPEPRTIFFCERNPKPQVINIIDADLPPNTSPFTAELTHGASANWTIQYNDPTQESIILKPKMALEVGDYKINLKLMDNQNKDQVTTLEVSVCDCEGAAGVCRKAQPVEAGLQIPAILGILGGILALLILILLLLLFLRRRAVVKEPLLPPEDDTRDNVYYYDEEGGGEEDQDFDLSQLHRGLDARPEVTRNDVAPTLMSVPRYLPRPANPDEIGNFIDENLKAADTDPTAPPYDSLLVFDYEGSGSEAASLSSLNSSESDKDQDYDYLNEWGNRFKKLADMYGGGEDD
structure (smiles),measurement,setting,value
CCOC(=O)CC[C@H](NC(=O)[C@H](Cc1nn[nH]n1)NC(=O)[C@H](Cc1ccc2ccccc2c1)NC(=O)c1cc2cc(Cl)ccc2[nH]1)C(=O)Nc1ccc(OC(F)(F)F)cc1,pIC50,MDA-MB-468,5.14
same,pIC50,MDA-MB-231,4.91
same,pIC50,A549,4.06
same,pIC50,SW480,4.85
same,pIC50,HCT-116,4.16
same,pIC50,BT-20,4.78
CC[C@@H]1[C@@H]2CN(C(=O)[C@H](C(C)(C)C)NC(=O)O[C@@H]3C[C@H]3CCCCC(F)(F)c3nc4ccc(OC)cc4nc3O2)[C@@H]1C(=O)N[C@]1(C(=O)NS(=O)(=O)C2(C)CC2)C[C@H]1C(F)F,pEC50,Hepatitis C virus [1],7.15
NC(=O)CC[C@H](NC(=O)[C@H](Cc1nn[nH]n1)NC(=O)[C@H](Cc1ccc2ccccc2c1)NC(=O)c1cc2cc(Cl)ccc2[nH]1)C(=O)Nc1ccc(OC(F)(F)F)cc1,pIC50,MDA-MB-468,4.53
same,pIC50,MDA-MB-231,4.46
same,pIC50,A549,4.22
same,pIC50,SW480,4.55
same,pIC50,HCT-116,4.19
same,pIC50,BT-20,4.42
CCCCCCCCCCCCCCc1cccc(O[C@H]2C[C@@H](C(=O)NCC(c3ccccc3)c3ccccc3)N(C(=O)[C@@H](NC(=O)[C@H](C)NC)C(C)(C)C)C2)c1,pEC50,FaDu,5.82
same,pEC50,Hep 3B2,5.66
same,pEC50,HCC1954,4.70
same,pEC50,BT-474,5.15
same,pEC50,NALM-6,4.95
COC(=O)N[C@H](C(=O)N1CCC[C@H]1C(=O)Nc1cccc(-c2ccc3c(c2)C(F)(F)c2cc(-c4cnc([C@@H]5CCCN5C(=O)[C@@H](NC(=O)OC)C(C)C)[nH]4)ccc2-3)c1)C(C)C,pEC50,Hepatitis C virus [2],9.56
same,pEC50,Hepatitis C virus [1],> 10.30
same,pEC50,Hepatitis C virus [3],< 9.30
COC(=O)N[C@H](C(=O)N1CCC[C@H]1C(=O)Nc1cc2ccc1CCc1ccc(cc1NC(=O)[C@@H]1CCCN1C(=O)[C@@H](NC(=O)OC)C(C)C)CC2)C(C)C,pEC50,Hepatitis C virus [2],< 9.30
same,pEC50,Hepatitis C virus [1],10.10
same,pEC50,Hepatitis C virus [3],< 9.30
O=C(Cc1ccccc1)NC1CC2CN(Cc3ccccc3)CC3C2CC=C(COC(=O)Cc2ccccc2)C13 (stereo not given),pEC50,N2a,5.68
same,pEC50,HeLa,4.99
CCCCCCCCCCCCCCCCCCS[C@H]1C[C@@H](C(=O)NCC(c2ccccc2)c2ccccc2)N(C(=O)[C@@H](NC(=O)[C@H](C)NC)C(C)(C)C)C1,pEC50,FaDu,5.27
same,pEC50,Hep 3B2,4.91
same,pEC50,HCC1954,4.76
same,pEC50,BT-474,4.97
same,pEC50,NALM-6,4.57
O=C(O)CC[C@H](NC(=O)[C@H](Cc1nnn[nH]1)NC(=O)[C@H](Cc1ccc2ccccc2c1)NC(=O)c1cc2c(Cl)cccc2[nH]1)C(=O)Nc1ccc(OC(F)(F)F)cc1,pKi,[4],3.76
same,pKi,[5],4.89
CCCCCCNC(=O)c1ncc(C(=O)NCCCCNC(=N)N)[nH]1,pIC50,[6],5.33
CCCCCNC(=O)c1ncc(C(=O)NCCCCNC(=N)N)[nH]1,pIC50,[6],5.72
CNC(=O)CNC(=O)c1ncc(C(=O)NCCCCNC(=N)N)[nH]1,pIC50,[6],5.72
CCCCCCCCCCCCCCCCCCS(=O)(=O)CCNC(=O)[C@H](Cc1ccc(-c2ccccc2)cc1)NC(=O)[C@@H]1C[C@H](Oc2ccccc2)CN1C(=O)[C@@H](NC(=O)[C@H](C)NC)C(C)(C)C (H-[NMeA][Tle][Pro(cis-4-OPh)][Bip]-X1),pEC50,[7],6.14
same,pEC50,[8],6.85
CCCCCCCCCCCCCCCCCCSCCNC(=O)[C@H](Cc1ccc(-c2ccccc2)cc1)NC(=O)[C@@H]1C[C@H](Oc2ccccc2)CN1C(=O)[C@@H](NC(=O)[C@H](C)NC)C(C)(C)C (H-[NMeA][Tle][Pro(cis-4-OPh)][Bip]-X2),pEC50,[7],6.02
same,pEC50,[8],6.48

# From ChEMBL document CHEMBL5120880, “Peptidomimetics: An Overview of Recent Medicinal Chemistry Efforts toward the Discovery of Novel Small Molecule Inhibitors” (J Med Chem, 2022)
